Patent US12201632B2, “Levoketoconazole for treatment of congenital adrenal hyperplasia and primary aldosteronism” (Strongbridge Dublin Limited, priority 2018, dated 2025)
Marks after values point to notes of the source that are not given here.

Columns and labels:
HAC15 cells [1] = test: Cortisol production by HAC15 cells (immunoassay); format: cell-based, Human; conditions: HAC15, 10 nM ACTH
Procedure: Human adrenocortical carcinoma HAC15 and mouse corticotroph AtT20 cells were used, purchased as a kind gift by Dr. W. Rainey, and obtained from Dr. J. Tooze (European Organization for Molecular Biology), respectively. Both cell lines were cultured in 75 cm^2 flasks at 37° C. in a humidified incubator (Greiner Bio-One, Alphen a/d Rijn, the Netherlands) at 5% CO2. Dulbecco's Modified Eagle Medium F12 containing 5% fetal calf serum was used for HAC15, whereas AtT20 cells were cultured in Dulbecco's minimal essential medium (DMEM) supplemented with 10% fetal calf serum. Both mediums were supplemented with L-glutamine (2 mmol/L) and penicillin (10^5 U/L). Short tandem repeat (str) profiling using a Powerplex Kit (Promega, Leiden, the Netherlands) of HAC15 and AtT20 gave results consistent with the ATCC database, confirming the identity of both cell lines. Medium and supplements were obtained from Invitrogen, Breda, the Netherlands. Once a week, cells were harvested with trypsin (0.05%)-EDTA (0.53 mM) and resuspended in culture medium. Levoketoconazole (COR-003) and racemic ketoconazole (both from Cortendo AB) were dissolved in absolute ethanol (EtOH), according to manufacturer's instructions, and stored at −20° C. at a stock concentration of […]. At the start of each experiment, both drugs were freshly prepared and diluted in EtOH in the correct concentrations. Synacten (synthetic ACTH, Novartis Pharma A.G.) stock concentration was stored at 4° C. and dissolved in culture medium at the day of use. The final concentrations of ACTH were chosen based on a dose-response curve in HAC15 cells and previously reported studies in the literature. For HAC15, 200,000 and 100,000 cells were plated in 0.5 ml medium in 24 well plates for experiments of 1 and 3 days, respectively. […]
Cortisol concentrations were measured in the supernatant using a chemiluminescence immunoassay system (Immulite 2000XPi; Siemens DPC Inc., Los Angeles, Calif., USA). In addition, we carried out multi-steroid analysis by liquid chromatography/mass spectrometry (LC/MS-MS) to accurately quantify androstenedione, corticosterone, cortisol, 11-deoxycortisol, DHEA, DHEAS, progesterone, 17-hydroxyprogesterone, and testosterone. […] Steroids were quantified with respect to a calibration series, with internal standards. Steroids were quantified on a Xevo TQS LC-MS/MS (Waters Chromatography).
Statistical analysis was performed using Graphpad Prism 6.0 (Graphpad Software, San Diego, CA). […] Effects of both compounds on the steroid profile were measured as absolute change compared to control and compared using the Student's t-test. When assessing differences between effects of both compounds, the percentage change was evaluated and compared in order to correct for differences in the vehicle treated control cells. […]

HAC15 cells [2] = test: Steroid profile by LC/MS-MS in HAC15 cells; format: cell-based, Human; conditions: HAC15
Procedure: Human adrenocortical carcinoma HAC15 and mouse corticotroph AtT20 cells were used, purchased as a kind gift by Dr. W. Rainey, and obtained from Dr. J. Tooze (European Organization for Molecular Biology), respectively. Both cell lines were cultured in 75 cm^2 flasks at 37° C. in a humidified incubator (Greiner Bio-One, Alphen a/d Rijn, the Netherlands) at 5% CO2. Dulbecco's Modified Eagle Medium F12 containing 5% fetal calf serum was used for HAC15, whereas AtT20 cells were cultured in Dulbecco's minimal essential medium (DMEM) supplemented with 10% fetal calf serum. Both mediums were supplemented with L-glutamine (2 mmol/L) and penicillin (10^5 U/L). Short tandem repeat (str) profiling using a Powerplex Kit (Promega, Leiden, the Netherlands) of HAC15 and AtT20 gave results consistent with the ATCC database, confirming the identity of both cell lines. Medium and supplements were obtained from Invitrogen, Breda, the Netherlands. Once a week, cells were harvested with trypsin (0.05%)-EDTA (0.53 mM) and resuspended in culture medium. Levoketoconazole (COR-003) and racemic ketoconazole (both from Cortendo AB) were dissolved in absolute ethanol (EtOH), according to manufacturer's instructions, and stored at −20° C. at a stock concentration of […]. At the start of each experiment, both drugs were freshly prepared and diluted in EtOH in the correct concentrations. Synacten (synthetic ACTH, Novartis Pharma A.G.) stock concentration was stored at 4° C. and dissolved in culture medium at the day of use. The final concentrations of ACTH were chosen based on a dose-response curve in HAC15 cells and previously reported studies in the literature. For HAC15, 200,000 and 100,000 cells were plated in 0.5 ml medium in 24 well plates for experiments of 1 and 3 days, respectively. For AtT20, cell amounts were 100,000 and 30,000. One day after seeding the HAC15 cells, the medium was refreshed and cells were treated 1 or 3 days in quadruplicate with levoketoconazole or racemic ketoconazole (0.05-5 μM), with or without 10 nM ACTH. To study effects of both compounds on pituitary AtT20 cells, concentrations of 0.1 to 10 μM of both drugs were used. Controls were vehicle treated. […] Media were collected after 1 or 3 days of incubation and stored at −20° C. until analysis. All cell culture experiments were carried out at least twice.
(§1) Cortisol concentrations were measured in the supernatant using a chemiluminescence immunoassay system (Immulite 2000XPi; Siemens DPC Inc., Los Angeles, Calif., USA). In addition, we carried out multi-steroid analysis by liquid chromatography/mass spectrometry (LC/MS-MS) to accurately quantify androstenedione, corticosterone, cortisol, 11-deoxycortisol, DHEA, DHEAS, progesterone, 17-hydroxyprogesterone, and testosterone. Concentrations that were tested on the LC/MS-MS were closest to 50% inhibition or maximal inhibition of cortisol as determined by the immunoassay. Steroids were quantified with respect to a calibration series, with internal standards. Steroids were quantified on a Xevo TQS LC-MS/MS (Waters Chromatography).
(§2) Statistical analysis was performed using Graphpad Prism 6.0 (Graphpad Software, San Diego, CA). Non-linear regression curve fitting program was used to calculate the half maximal inhibitory concentrations (IC50) on cortisol production. Effects of both compounds on the steroid profile were measured as absolute change compared to control and compared using the Student's t-test. When assessing differences between effects of both compounds, the percentage change was evaluated and compared in order to correct for differences in the vehicle treated control cells. Values of P<0.05 were considered statistically significant and data are presented as mean SEM.

[3] = system: EAS associated adrenal hyperplasia no. 1 primary culture; test: Steroid profile by LC/MS-MS in EAS associated adrenal hyperplasia no. 1; format: cell-based, human; conditions: EAS associated adrenal hyperplasia no. 1
Procedure: (§3) To obtain primary cultures, adrenal specimens (adrenocortical adenomas, adrenal hyperplasias and adrenocortical carcinomas) were collected after adrenalectomy at the department of Surgery, Erasmus University Medical Center, Rotterdam, the Netherlands, between April 2016 and May 2018. The study was conducted under guidelines that have been approved by the Medical Ethics Committee of the Erasmus Medical Center and informed consent was obtained from all patients. Immediately after surgery, specimens were minced into small pieces of 2-3 mm^3, washed in culture medium and centrifuged for 5 minutes at 600 g. The tissue was stored overnight in culture medium at 4° C., where after the tissue was centrifuged again and the supernatant was removed. Fragments were dissociated using 10-25 ml collagenase type 1 (2 mg/ml: Sigma-Aldrich), followed by incubation at 37° C. for up to two hours. Ficoll (GE healthcare) density gradient separation was used once or twice as required in order to separate contaminating red blood cells from the tumor cells. Cell viability and cell amount were counted by trypan blue exclusion. Dissociated cells were plated at a density of 10^5 cells per well. ACTH-secreting corticotroph pituitary adenoma tissue from patients with Cushing's disease (n=2) was available after transsphenoidal surgery. Single-cell suspensions of the pituitary adenoma tissues were prepared as previously described in detail.
Primary culture conditions for primary cultures were similar as described in the section ‘cell culture and compounds’, but with small adjustments: ACTH was used at a concentration of 85 pM (250 pg/mL), treatment was started 3-4 days after plating of the cells and cells were incubated for 3 days, and; for pituitary primary cultures, levoketoconazole and racemic ketoconazole were only tested at a concentration of 1 μM. Owing to a limited number of cells obtained from the specimens, not all experiments were carried out in every primary culture.
as §1, §2

[4] = system: EAS associated adrenal hyperplasia cultures; test: Cortisol production in primary EAS associated adrenal hyperplasia cultures; format: cell-based, human; conditions: EAS associated hyperplasia no. 1, ACTH (85 μM), mean percentage increase of cortisol production compared to control
Procedure: as §3
(§4) Owing to a limited number of cells obtained from the specimens, not all experiments were carried out in every primary culture.
as §1, §2

[5] = system: primary human adrenocortical carcinoma cultures; test: Cortisol production in primary adrenocortical carcinoma cultures; format: cell-based; conditions: ACC no. 3, ACTH (85 μM), mean percentage increase of cortisol production compared to control
Procedure: as §3, §4, §1, §2

For “ACTH: Synacten (synthetic ACTH, Novartis Pharma A.G.), used to stimulate cortisol production”, the “mean increase in cortisol by ACTH stimulation” value (HAC15 cells [1]; 1 day of incubation) was 34%, the “mean increase in cortisol by ACTH stimulation” value (HAC15 cells [1]; 3 days of incubation) was 61% and the “increase of corticosterone under ACTH” value (HAC15 cells [2]) was 359%. For the same substance, the “increase of progesterone under ACTH” value (HAC15 cells [2]) was 7%, the “change of progesterone by ACTH stimulation” value [3] was −11% and the “change of testosterone by ACTH stimulation” value [3] was “did not change”. For the same substance, the “mean increase of corticosterone, 17-OHP, 11-DOC, cortisol and androstenedione by ACTH stimulation” value [3] was “+111%”, the “ACTH stimulated cortisol (%)” value [4] was “+228%” and the “ACTH stimulated cortisol (%)” value [5] was “+67% *”.
